# ChEMBL document CHEMBL1132983, “Doubly homologated dihalovinyl and acetylene analogues of adenosine: synthesis, interaction with S-adenosyl-L-homocysteine hydrolase, and antiviral and cytostatic effects” (J Med Chem, 2000)
# Key:
# [1] = target: Adenosylhomocysteinase (Homo sapiens) (UniProt P23526); test: Compound was evaluated for inhibition of human placental AdoHcy hydrolase at a concentration of 1.0 uM
# [2] = target: Adenosylhomocysteinase (Homo sapiens) (UniProt P23526); test: Compound was evaluated for inhibition of human placental AdoHcy hydrolase at a concentration of 100 uM
# [3] = target: Adenosylhomocysteinase (Homo sapiens) (UniProt P23526); test: Compound was evaluated for inhibition of human placental AdoHcy hydrolase at a concentration of 10 uM
# [4] = target: Adenosylhomocysteinase (Homo sapiens) (UniProt P23526); test: Compound was evaluated for inhibition of human placental AdoHcy hydrolase at a concentration of 50 uM
# [5] = target: Adenosylhomocysteinase (Homo sapiens) (UniProt P23526); test: Compound was evaluated for inhibition of human placental AdoHcy hydrolase at a concentration of 0.1 uM
# Chain of Adenosylhomocysteinase (Homo sapiens) (P23526 2-432 limits assumed): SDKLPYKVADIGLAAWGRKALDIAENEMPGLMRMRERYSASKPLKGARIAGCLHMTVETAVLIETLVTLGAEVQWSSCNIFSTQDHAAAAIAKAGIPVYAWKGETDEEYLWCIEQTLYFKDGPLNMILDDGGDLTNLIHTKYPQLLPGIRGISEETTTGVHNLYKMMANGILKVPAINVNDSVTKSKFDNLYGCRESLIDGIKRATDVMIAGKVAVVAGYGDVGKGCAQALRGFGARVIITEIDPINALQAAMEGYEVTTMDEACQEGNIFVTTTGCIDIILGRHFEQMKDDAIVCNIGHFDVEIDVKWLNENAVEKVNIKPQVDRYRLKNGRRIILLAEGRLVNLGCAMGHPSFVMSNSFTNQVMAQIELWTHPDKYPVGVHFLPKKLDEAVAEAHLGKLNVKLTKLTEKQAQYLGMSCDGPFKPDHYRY
Enzyme activity [1],Enzyme activity [2],Enzyme activity [3],Enzyme activity [4],Enzyme activity [5],Compound
87.4%,5.8%,37.4%,9.7%,90.6%,Nc1ncnc2c1ncn2C1O[C@H](C/C=C(/F)Br)[C@@H](O)[C@H]1O (stereo not given in full)
73.4%,8%,38.9%,14.3%,98.3%,C#CC[C@H]1OC(n2cnc3c(N)ncnc32)[C@H](O)[C@@H]1O (stereo not given in full)
48.5%,4%,17.1%,5%,87.5%,Nc1ncnc2c1ncn2C1O[C@H](CC=C(Br)Br)[C@@H](O)[C@H]1O (stereo not given in full)
